Patent publication US6706663B2, “Herbicidal 3-heterocyclic substituted benzisothiazole and benzisoxazole compounds” (Wyeth, priority 2000, dated 2004)

Tests used:
ORYSAT (Rice, Tebonnet) = assay: Flooded paddy, post-transplant rice tolerance; assay type: in vivo, Oryza sativa, (L.) Tebonnet; conditions: flooded paddy, post-transplant rice, rated 3-4 weeks after treatment, 0-9 rating scale
Outline: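 Ten-day-old seedlings, 2/pot, silt loam; flood kept 1.5–3 cm over soil; herbicide applied post-transplant; greenhouse; score 0–9 visual vs control.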

[1] = tested on: GLXMAW (Soybean, Williams); assay: Preemergence herbicidal evaluation; assay type: in vivo, Glycine max, (L.) Merr. cv Williams; conditions: rated 4-5 weeks after treatment
GALAP (Galium aparine) = assay: Postemergence herbicidal evaluation; assay type: in vivo; conditions: postemergence
Outline: (§1)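 Seedlings grown about two weeks in flats, sprayed, then kept under standard greenhouse care. Rated visually 4–5 weeks after treatment on a 0–9 scale (stand, vigour, malformation, size, chlorosis, overall appearance) relative to untreated control; repeat tests averaged.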

[2] = tested on: IPOHE (Ipomoea hederacea); assay: Preemergence herbicidal evaluation; assay type: in vivo, (L.) Jacq.; conditions: rated 4-5 weeks after treatment
[3] = tested on: ABUTH (Abutilon theophrasti); assay: Postemergence herbicidal evaluation; assay type: in vivo, Medic.; conditions: postemergence
Outline: as §1

[4] = tested on: AMBEL (Ambrosia artemisifolia); assay: Postemergence herbicidal evaluation; assay type: in vivo, L.; conditions: postemergence
Outline: as §1

[5] = tested on: CHEAL (Chenopodium album); assay: Postemergence herbicidal evaluation; assay type: in vivo, L.; conditions: postemergence
Outline: as §1

[6] = tested on: CASOB (Cassia obtusifolia); assay: Postemergence herbicidal evaluation; assay type: in vivo, L.; conditions: postemergence
Outline: as §1

CYPIR (Cyperus iria) = assay: Flooded paddy, preemergence weed control; assay type: in vivo; conditions: rated 3-4 weeks after treatment, 0-9 rating scale
Outline: (§2)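 Plants were established from seed or propagating organs in flooded silt loam, with the water surface held 1.5 to 3 cm above the soil for the entire experiment. Injury was assessed visually against a control and given a 0-9 score.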

ZEAMX (Corn, Field) = assay: Preemergence herbicidal evaluation; assay type: in vivo, Zea mays, L.; conditions: rated 4-5 weeks after treatment
[7] = tested on: SAGPY (Sagittaria pygmaea); assay: Flooded paddy, preemergence weed control; assay type: in vivo, L.; conditions: rated 3-4 weeks after treatment, 0-9 rating scale
Outline: as §2

Row | Structure (SMILES) | herbicidal rating, ORYSAT (rice tolerance) (ORYSAT (Rice, Tebonnet); rate 0.0080 kg/ha) | herbicidal rating, ORYSAT (rice tolerance) (ORYSAT (Rice, Tebonnet); rate 0.0320 kg/ha) | herbicidal rating, ORYSAT (rice tolerance) (ORYSAT (Rice, Tebonnet); rate 0.1250 kg/ha) | Preemergence herbicidal rating GLXMAW ([1]; Rate 0.0620 kg/ha) | Preemergence herbicidal rating GLXMAW ([1]; Rate 0.1250 kg/ha) | GALAP herbicidal rating (GALAP (Galium aparine); rate 0.0320 kg/ha) | GALAP herbicidal rating (GALAP (Galium aparine); rate 0.0620 kg/ha) | Preemergence herbicidal rating IPOHE ([2]; Rate 0.0620 kg/ha) | Preemergence herbicidal rating IPOHE ([2]; Rate 0.1250 kg/ha) | ABUTH herbicidal rating ([3]; rate 0.0320 kg/ha) | ABUTH herbicidal rating ([3]; rate 0.0620 kg/ha) | AMBEL herbicidal rating ([4]; rate 0.0320 kg/ha) | AMBEL herbicidal rating ([4]; rate 0.0620 kg/ha) | CHEAL herbicidal rating ([5]; rate 0.0320 kg/ha) | CHEAL herbicidal rating ([5]; rate 0.0620 kg/ha) | CASOB herbicidal rating ([6]; rate 0.0320 kg/ha) | CASOB herbicidal rating ([6]; rate 0.0620 kg/ha) | herbicidal rating, CYPIR (CYPIR (Cyperus iria); rate 0.0080 kg/ha) | herbicidal rating, CYPIR (CYPIR (Cyperus iria); rate 0.0320 kg/ha) | herbicidal rating, CYPIR (CYPIR (Cyperus iria); rate 0.1250 kg/ha) | other results
1 | Cn1c(C(F)(F)F)cc(=O)n(-c2cc3c(C4OCCCO4)nsc3cc2F)c1=O [Compound 62, 3-(3-m-dioxan-2-yl-6-fluoro-1,2-benzisothiazol-5-yl)-1-methyl-6-(trifluoromethyl)uracil] | 9.0 | 9.0 | 9.0 | 9.0 | 9.0 | 9.0 | 9.0 | 9.0 | 9.0 | 9.0 | 9.0 | 9.0 | 9.0 | 9.0 | 9.0 | 9.0 | 9.0 | 4.5 | 9.0 | 9.0 | Preemergence herbicidal rating GLXMAW ([1]; Rate 0.2500 kg/ha): 9.0; Preemergence herbicidal rating IPOHE ([2]; Rate 0.2500 kg/ha): 9.0; Preemergence herbicidal rating ZEAMX (ZEAMX (Corn, Field); Rate 0.0620 kg/ha): 9.0; Preemergence herbicidal rating ZEAMX (ZEAMX (Corn, Field); Rate 0.1250 kg/ha): 9.0; Preemergence herbicidal rating ZEAMX (ZEAMX (Corn, Field); Rate 0.2500 kg/ha): 9.0; herbicidal rating, SAGPY ([7]; rate 0.0080 kg/ha): 9.0; herbicidal rating, SAGPY ([7]; rate 0.0320 kg/ha): 6.0; herbicidal rating, SAGPY ([7]; rate 0.1250 kg/ha): 9.0
2 | COCC1COC(c2nsc3ccc(-n4c(=O)cc(C(F)(F)F)n(C)c4=O)cc23)O1 (stereo not shown) [Compound 64, 3-[3-[4-(methoxymethyl)-1,3-dioxolan-2-yl]-1,2-benzisothiazol-5-yl]-1-methyl-6-(trifluoromethyl)uracil] | 5.5 | 8.0 | 9.0 | 9.0 | 9.0 | 9.0 | 9.0 | 7.0 | 9.0 | 9.0 | 9.0 | 9.0 | 9.0 | 9.0 | 9.0 | 4.0 | 5.0 | 1.5 | 6.0 | 9.0 | Preemergence herbicidal rating GLXMAW ([1]; Rate 0.2500 kg/ha): 9.0; Preemergence herbicidal rating IPOHE ([2]; Rate 0.2500 kg/ha): 9.0; Preemergence herbicidal rating ZEAMX (ZEAMX (Corn, Field); Rate 0.0620 kg/ha): 8.5; Preemergence herbicidal rating ZEAMX (ZEAMX (Corn, Field); Rate 0.1250 kg/ha): 9.0; Preemergence herbicidal rating ZEAMX (ZEAMX (Corn, Field); Rate 0.2500 kg/ha): 9.0; herbicidal rating, SAGPY ([7]; rate 0.0080 kg/ha): 0.0; herbicidal rating, SAGPY ([7]; rate 0.0320 kg/ha): 3.0; herbicidal rating, SAGPY ([7]; rate 0.1250 kg/ha): 9.0
3 | CC1=CC(C)(C)OC(c2nsc3ccc(-n4c(=O)cc(C(F)(F)F)n(C)c4=O)cc23)C1 (stereo not shown) [Compound 65, 3-[3-(3,6-dihydro-4,6,6-trimethyl-2H-pyran-2-yl)-1,2-benzisothiazol-5-yl]-1-methyl-6-(trifluoromethyl)uracil] | 0.0 | 0.0 | 0.0 | 2.0 | 3.0 | 5.0 | 6.0 | 0.0 | 3.0 | 9.0 | 9.0 | 9.0 | 9.0 | 7.0 | 9.0 | 4.0 | 5.0 | 0.0 | 0.0 | 9.0 | Preemergence herbicidal rating GLXMAW ([1]; Rate 0.2500 kg/ha): 6.0; Preemergence herbicidal rating IPOHE ([2]; Rate 0.2500 kg/ha): 9.0; Preemergence herbicidal rating ZEAMX (ZEAMX (Corn, Field); Rate 0.0620 kg/ha): 7.0; Preemergence herbicidal rating ZEAMX (ZEAMX (Corn, Field); Rate 0.1250 kg/ha): 8.0; Preemergence herbicidal rating ZEAMX (ZEAMX (Corn, Field); Rate 0.2500 kg/ha): 9.0; herbicidal rating, SAGPY ([7]; rate 0.0080 kg/ha): 0.0; herbicidal rating, SAGPY ([7]; rate 0.0320 kg/ha): 0.0; herbicidal rating, SAGPY ([7]; rate 0.1250 kg/ha): 0.0
4 | C[C@@H]1C[C@H](C)OC(c2nsc3cc(F)c(-n4c(=O)cc(C(F)(F)F)n(C)c4=O)cc23)O1 (stereo partly drawn) [Compound 67, 3-[3-[(4R,6S)-4,6-dimethyl-m-dioxan-2-yl]-6-fluoro-1,2-benzisothiazol-5-yl]-1-methyl-6-(trifluoromethyl)uracil] | 5.5 | 9.0 | 9.0 | 9.0 | 9.0 | 6.0 | 5.0 | 7.0 | 9.0 | 9.0 | 9.0 | 9.0 | 9.0 | 9.0 | 9.0 | 9.0 | 9.0 | 4.5 | 7.0 | 9.0 | Preemergence herbicidal rating ZEAMX (ZEAMX (Corn, Field); Rate 0.0620 kg/ha): 9.0; Preemergence herbicidal rating ZEAMX (ZEAMX (Corn, Field); Rate 0.1250 kg/ha): 9.0; herbicidal rating, SAGPY ([7]; rate 0.0080 kg/ha): 1.5; herbicidal rating, SAGPY ([7]; rate 0.0320 kg/ha): 7.0; herbicidal rating, SAGPY ([7]; rate 0.1250 kg/ha): 7.0
